Data: PubChem BioAssay AID248 (DTP/NCI, 2004)
Inconclusive results and toxic doses are left out. Cut-off read from the data, not from the text of the source: active = T/C of 150% or more; inactive = T/C below 125%. Square brackets hold non-standard residues; d marks the D form. Peptide text beside a SMILES is read from it. * marks the point of attachment. ξ: configuration not given here. Cbz = O=C(OCc1ccccc1)*; ξT = CC(O)C(N)C(=O)O; OBn = c1ccc(CO*)cc1

Test system: L1210 leukemia ip in BDF1 mice, survival T/C
Assay: NCI In Vivo Anticancer Drug Screen. Data for tumor model L1210 Leukemia (intraperitoneal) in B6D2F1 (BDF1) mice
Conditions: endpoint: mean survival time, higher = longer survival
In short: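 Tumor was transplanted into mice, which were then dosed with test compound or vehicle alone. Survival was recorded for each group, and the treated figure was expressed relative to the control figure.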

[1] = dose: 100.0 mg/kg/injection, schedule: Q04DX003 (ip), vehicle: saline with Tween-80
[2] = dose: 200.0 mg/kg/injection, schedule: Q04DX003 (ip), vehicle: saline with Tween-80
[3] = dose: 400.0 mg/kg/injection, schedule: Q04DX003 (ip), vehicle: saline with Tween-80
[4] = dose: 100.0 mg/kg/injection, schedule: Q01DX001 (ip), vehicle: saline
[5] = dose: 200.0 mg/kg/injection, schedule: Q01DX001 (ip), vehicle: saline
[6] = dose: 400.0 mg/kg/injection, schedule: Q01DX001 (ip), vehicle: saline
[7] = dose: 100.0 mg/kg/injection, schedule: Q01DX009 (ip), vehicle: Klucel (hydroxypropylcellulose) (HPC)
[8] = dose: 100.0 mg/kg/injection, schedule: Q04DX003 (ip), vehicle: Klucel (hydroxypropylcellulose) (HPC)
[9] = dose: 200.0 mg/kg/injection, schedule: Q01DX009 (ip), vehicle: Klucel (hydroxypropylcellulose) (HPC)
[10] = dose: 200.0 mg/kg/injection, schedule: Q04DX003 (ip), vehicle: Klucel (hydroxypropylcellulose) (HPC)
[11] = dose: 400.0 mg/kg/injection, schedule: Q01DX009 (ip), vehicle: Klucel (hydroxypropylcellulose) (HPC)
[12] = dose: 400.0 mg/kg/injection, schedule: Q04DX003 (ip), vehicle: Klucel (hydroxypropylcellulose) (HPC)
[13] = dose: 100.0 mg/kg/injection, schedule: Q01DX009 (ip), vehicle: saline with Tween-80
[14] = dose: 200.0 mg/kg/injection, schedule: Q01DX009 (ip), vehicle: saline with Tween-80
[15] = dose: 400.0 mg/kg/injection, schedule: Q01DX009 (ip), vehicle: saline with Tween-80
[16] = dose: 5.0 mg/kg/injection, schedule: Q01DX001 (ip), vehicle: saline
[17] = dose: 10.0 mg/kg/injection, schedule: Q01DX001 (ip), vehicle: saline
[18] = dose: 50.0 mg/kg/injection, schedule: Q01DX001 (ip), vehicle: carboxymethylcellulose (CMC)
[19] = dose: 100.0 mg/kg/injection, schedule: Q01DX001 (ip), vehicle: carboxymethylcellulose (CMC)
[20] = dose: 200.0 mg/kg/injection, schedule: Q01DX001 (ip), vehicle: carboxymethylcellulose (CMC)
[21] = dose: 400.0 mg/kg/injection, schedule: Q01DX001 (ip), vehicle: carboxymethylcellulose (CMC)

Measured: T/C

CC(O)C(NC(=O)CNC(=O)OCc1ccccc1)C(=O)OCc1ccccc1 (stereo not drawn) (Cbz-Gly-[ξT]-OBn)
inactive: [1] 97 % of control | [2] 105 % of control | [3] 97 % of control

Cn1c(=O)c2c(nc(OCC3CCCCC3)n2C)n(C)c1=O
inactive: dose: 50.0 mg/kg/injection, schedule: Q01DX001 (ip), vehicle: other 94 % of control | dose: 100.0 mg/kg/injection, schedule: Q01DX001 (ip), vehicle: other 100 % of control | dose: 200.0 mg/kg/injection, schedule: Q01DX001 (ip), vehicle: other 94 % of control | dose: 400.0 mg/kg/injection, schedule: Q01DX001 (ip), vehicle: other 92 % of control

N#CCN(CC#N)S(=O)(=O)c1ccccc1
inactive: [1] 96 % of control | [2] 94 % of control | [3] 101 % of control

O=C(O)/C=C\C=C\c1ccccc1
inactive: [4] 89 % of control | [5] 94 % of control | [6] 96 % of control

CCOC(=O)c1cnc(SC)nc1Nc1cccc(Br)c1
inactive: [7] 91 % of control | [8] 97 % of control | [9] 96 % of control | [10] 92 % of control | [11] 93 % of control | [12] 90 % of control

CCCCCCCCCCCCCCCCCC(=O)[O][Sn]([CH2]CCC)([CH2]CCC)[O]C(=O)CCCCCCCCCCCCCCCCC
inactive: dose: 6.25 mg/kg/injection, schedule: Q04DX003 (ip), vehicle: other 100 % of control | dose: 12.5 mg/kg/injection, schedule: Q04DX003 (ip), vehicle: other 114 % of control | dose: 25.0 mg/kg/injection, schedule: Q04DX003 (ip), vehicle: other 101 % of control | dose: 50.0 mg/kg/injection, schedule: Q04DX003 (ip), vehicle: other 101 % of control

CCCCCCCCC[n+]1cccc(C(N)=O)c1
inactive: [1] 106 % of control

CCOC(=O)c1ccc(N(CC(=O)CN=[N+]=[N-])S(=O)(=O)c2ccc(C)cc2)cc1
inactive: [13] 96 % of control | [14] 96 % of control | [15] 89 % of control

COc1ccc2nc3ccccc3c(N)c2c1
inactive: [16] 100 % of control | [17] 100 % of control | dose: 20.0 mg/kg/injection, schedule: Q01DX001 (ip), vehicle: saline 97 % of control | dose: 40.0 mg/kg/injection, schedule: Q01DX001 (ip), vehicle: saline 90 % of control

CCCCC=C(C)C
inactive: [18] 106 % of control | [19] 93 % of control | [20] 104 % of control | [21] 104 % of control

CC(=O)C(C(C)=O)c1cc(NS(=O)(=O)c2ccccc2)ccc1O
inactive: dose: 100.0 mg/kg/injection, schedule: Q01DX001 (ip), vehicle: saline with Tween-80 100 % of control | dose: 200.0 mg/kg/injection, schedule: Q01DX001 (ip), vehicle: saline with Tween-80 104 % of control | dose: 400.0 mg/kg/injection, schedule: Q01DX001 (ip), vehicle: saline with Tween-80 89 % of control

Cc1cccc(C(=O)Cl)c1[N+](=O)[O-]
inactive: [18] 95 % of control | [19] 93 % of control | [20] 90 % of control | [21] 95 % of control

Cc1ccc(S(=O)(=O)Nc2cccc3c(NS(=O)(=O)c4ccc(C)cc4)cccc23)cc1
inactive: [13] 96 % of control | [14] 94 % of control | [15] 100 % of control

COC(=O)N1CC=CCN1C(=O)OC
inactive: dose: 100.0 mg/kg/injection, schedule: Q04DX003 (ip), vehicle: saline 94 % of control | dose: 200.0 mg/kg/injection, schedule: Q04DX003 (ip), vehicle: saline 116 % of control | dose: 400.0 mg/kg/injection, schedule: Q04DX003 (ip), vehicle: saline 115 % of control

CC1=NCCN1CCNC(=O)c1ccc(C(=O)NCCN2CCN=C2C)cc1
inactive: [16] 103 % of control | [17] 101 % of control

Cc1cc2c(c3[nH]c4ccccc4c13)C(=O)c1ccccc1C2=O
inactive: [4] 102 % of control | [5] 95 % of control | [6] 102 % of control

CC1(C)N=C(N)N=C(N)N1c1cccc(CC(=O)Nc2ccccc2)c1
inactive: dose: 12.5 mg/kg/injection, schedule: Q01DX009 (ip), vehicle: saline 102 % of control | dose: 25.0 mg/kg/injection, schedule: Q01DX009 (ip), vehicle: saline 98 % of control | dose: 50.0 mg/kg/injection, schedule: Q01DX009 (ip), vehicle: saline 102 % of control | dose: 100.0 mg/kg/injection, schedule: Q01DX009 (ip), vehicle: saline 96 % of control | dose: 200.0 mg/kg/injection, schedule: Q01DX009 (ip), vehicle: saline 98 % of control

O=S(=O)(c1ccccc1)C(Cl)c1cccc(Cl)c1 (stereo not drawn)
inactive: dose: 100.0 mg/kg/injection, schedule: Q04DX002 (ip), vehicle: Klucel (hydroxypropylcellulose) (HPC) 105 % of control | dose: 200.0 mg/kg/injection, schedule: Q04DX002 (ip), vehicle: Klucel (hydroxypropylcellulose) (HPC) 101 % of control | dose: 400.0 mg/kg/injection, schedule: Q04DX002 (ip), vehicle: Klucel (hydroxypropylcellulose) (HPC) 122 % of control

CCCCCC/C=N/Nc1ccc([N+](=O)[O-])cc1[N+](=O)[O-]
inactive: dose: 50.0 mg/kg/injection, schedule: Q01DX009 (ip), vehicle: saline with Tween-80 101 % of control | [13] 102 % of control | [14] 91 % of control

CC1(C)OC2OC(COC(=O)c3ccc([N+](=O)[O-])cc3)C(OC(=O)c3ccc([N+](=O)[O-])cc3)C2O1 (stereo not drawn)
inactive: dose: 100.0 mg/kg/injection, schedule: Q01DX001 (ip), vehicle: steriod suspending solution 87 % of control | dose: 200.0 mg/kg/injection, schedule: Q01DX001 (ip), vehicle: steriod suspending solution 95 % of control | dose: 400.0 mg/kg/injection, schedule: Q01DX001 (ip), vehicle: steriod suspending solution 104 % of control

N#Cc1ccc2c(c1)Nc1ccccc1S2
inactive: [7] 101 % of control | [8] 103 % of control | [9] 99 % of control | [10] 92 % of control | [11] 89 % of control | [12] 105 % of control

CC(O)c1ccc2c(c1)Nc1ccccc1S2 (stereo not drawn)
inactive: dose: 100.0 mg/kg/injection, schedule: Q04DX002 (ip), vehicle: saline with Tween-80 91 % of control | dose: 200.0 mg/kg/injection, schedule: Q04DX002 (ip), vehicle: saline with Tween-80 105 % of control | dose: 400.0 mg/kg/injection, schedule: Q04DX002 (ip), vehicle: saline with Tween-80 91 % of control

O=C(O)/C=C/c1cnc[nH]1
inactive: dose: 100.0 mg/kg/injection, schedule: Q04DX002 (ip), vehicle: saline 93 % of control | dose: 200.0 mg/kg/injection, schedule: Q04DX002 (ip), vehicle: saline 104 % of control | dose: 400.0 mg/kg/injection, schedule: Q04DX002 (ip), vehicle: saline 108 % of control

Cc1ccc(S(=O)(=O)OCCCN(CCCOS(=O)(=O)c2ccc(C)cc2)c2ccccc2)cc1
inactive: dose: 50.0 mg/kg/injection, schedule: Q01DX001 (ip), vehicle: saline 101 % of control | [4] 86 % of control | [5] 95 % of control | [6] 95 % of control
